How the values were obtained:
[1] = test system: microdissected organ-cultured hair follicles; assay: Hair shaft elongation in Philpott model of microdissected organ-cultured hair follicles; format: cell-based, human; conditions: 6 days, lower dose of compound A, FIG. 1
Experimental: (§1) A Philpott model test system of microdissected organ-cultured hair follicles is used. Hair follicles and skin punches were divided into 4 groups (3 HFs/well) incubated with the test substance Compound ‘A in different concentrations for 6 days. On day 0, microdissection measurements of hair length are conducted. On day 1, the medium is changed and addition of compound A (with measurement of hair length). On day 3, the medium is changed and compound a is added (with measurement of hair length). On day 6, hair length is measured and embedding occurs.

[2] = test system: human hair follicle pigmentation; assay: Fontana-Masson histomorphometry/melanin staining on hair follicle cryosections; format: cell-based; conditions: FIG. 2
Experimental: as §1

[3] = test system: human hair matrix keratinocytes; assay: Ki-67/Tunel fluorescent staining of hair follicles; format: cell-based; conditions: high doses of compound A; FIG. 4
Experimental: as §1
Ki-67/Tunel staining was also conduct on the hair follicles using fluorescent staining.

K15 = K15 expression in treated hair follicles and skin; format: cell-based, human; conditions: FIG. 5
Experimental: as §1

K19 = K19 cells in treated hair follicles and skin; format: cell-based, human; conditions: for K19 cells: lower hair follicle, FIG. 6
Experimental: as §1

[4] = test system: human primary keratinocytes; assay: MTT test on human primary keratinocytes; format: cell-based; conditions: 0.1-1-2 mM, 24 and 48 h, FIG. 7
Experimental: To assess the possible toxic or cytostatic effect of the substances under study, a spectrophotometric test (MTT) was carried out. The human primary keratinocytes, isolated from skin biopsies, were plated in wells of a 24-well plate in suitable medium with addition of antibiotics, calcium, and specific growth factors. At around 70% confluence, the cells were exposed to the presence of Compound A, at various concentrations (0.1-1-2 mM), for 24 and 48 h in suitable medium with addition of antibiotics, calcium, but no growth factors. This culture condition was done for all the subsequent experiments. At the end of the treatment, the MTT test was done.

TNF-alpha mRNA = assay: Inhibition of TNF-alpha mRNA induction by H2O2 in keratinocytes (Real time RT-PCR); format: cell-based, human; conditions: H2O2 300 μM, 6 h, FIG. 8
Experimental: Analysis of the inhibition of compound A of the mRNA induction of the proinflammatory cytokine TNF-alpha by H2O2 was carried out by Real time RT-PCR. The keratinocytes were plated in dishes of 6 cm/Ø. At 80% confluence, the cells were treated with H2O2 (300 μM) in presence of Compound A at the three concentrations (0.01-0.1-0.5 mM) for 6 h. At the end of the treatment, the cells were lysed in a lysis buffer and subjected to isolation and subsequent retrotranscription of the RNA. […] (FIG. 8)

IL-6 mRNA = assay: Inhibition of IL-6 mRNA induction by IFN-γ in keratinocytes (Real time RT-PCR); format: cell-based, human; conditions: IFN-γ 30 ng/ml, 0.01-0.1-0.5 mM, 6 h, FIG. 9
Experimental: Analysis of the inhibition by compound A of the mRNA induction of the proinflammatory cytokine IL-6 by IFN-γ was done through Real time RT-PCR. The keratinocytes were plated in dishes of 6 cm/Ø.
At 80% confluence, the cells were treated with IFN-γ (30 ng/ml) in presence of compound A at the three concentrations (0.01-0.1-0.5 mM) for 6 h.

IL-6 = assay: Inhibition of IL-6 protein induction by LPS in keratinocytes (ELISA); format: cell-based, human; conditions: LPS 10 μg/ml, 0.01-0.1-0.5 mM, 24 h, supernatant ELISA, FIG. 11
Experimental: Analysis of the inhibition by Compound A of the protein induction of IL-6 by LPS (lipopolysaccharide) was done with the ELISA kit. The keratinocytes were plated in wells of a 24-well plate. At 80% confluence, the cells were treated with LPS (10 μg/ml) in presence of compound A at the three concentrations (0.01-0.1-0.5 mM) for 24 h. At the end of the treatment, the supernatant was decanted, centrifuged so as to remove any cell detritus, and kept at −80° C. until the time of the analysis. The quantity of IL-6 present in the supernatant was normalized by the protein concentration of the sample itself.

sebocytes [5] = assay: MTT test on human sebocytes; format: cell-based; conditions: 0.1-0.5-1-2 mM, 24 and 48 h, FIG. 12
Experimental: To assess the possible toxic or cytostatic effect of the substances under study, a spectrophotometric test (MTT) was carried out. The sebocytes were plated in wells of a 24-well plate in suitable medium with addition of antibiotics, calcium and EGF. At roughly 70% confluence, the cells were exposed to the presence of compound A, in various concentrations (0.1-0.5-1-2 mM), for 24 and 48 h. At the end of the treatment, the MTT test was performed. […] (FIG. 12)

sebocytes [6] = assay: Nile Red assay of sebogenesis induced by linoleic acid and testosterone in sebocytes; format: cell-based, human; conditions: for sebogenesis (intracellular lipids, Nile Red) induced by LA and LA+TST: TST (20 nM), 24 h
Experimental: Analysis of the inhibition by (compound A) of sebogenesis induced by treatment with linoleic acid (LA) and with testosterone (TST) was evaluated by spectrofluorimetry, using Nile Red as selective marker of intracellular lipids (Nile Red Assay). The sebocytes were plated in wells of a 24-well plate. Next day, they were deprived of serum (2%) and after 24 h they were stimulated, for another 24 h, with LA (10^-4M), TST (20 nM) in presence or in absence of A (1 mM). At the end of the treatment, the sebocytes were stained with Nile Red. The quantitative analysis was done by spectrofluorimetry, which made it possible to distinguish between neutral lipids and polar lipids based on the different wavelength of excitation and emission. […] (FIG. 13).
Analysis of the inhibition by compound A of sebogenesis induced by treatment with linoleic acid (LA) and with testosterone (TST) was evaluated by spectrofluorimetry, using Nile Red as selective marker of intracellular lipids (Nile Red Assay). The sebocytes were plated in wells of a 24-well plate. Next day, they were deprived of serum (2%) and after 24 h they were stimulated, for another 24 h, with LA (10^-4M), TST (20 nM) in presence or in absence of compound A (1 mM). At the end of the treatment, the sebocytes were stained with Nile Red. The quantitative analysis was done by spectrofluorimetry, which made it possible to distinguish between neutral lipids and polar lipids based on the different wavelength of excitation and emission.

sebocytes [7] = assay: GC-MS assay of fatty acids and squalene in lipid extract of sebocytes stimulated with LA and TST; format: cell-based, human; conditions: sebocyte lipid extract, A 1 mM
Experimental: In order to evaluate in greater detail the inhibition by Compound A of sebogenesis induced by LA and TST, assays were performed on the lipid extract of the sebocytes using gas chromatography coupled with mass spectrometry (GC-MS). The sebocytes were treated by the scheme described for the Nile Red assay. At the end of the treatment, the cells were removed and then the lipid extraction was done by using organic solvents. One part of the extract was used to analyze the fatty acid composition, while the other part was used for the determination of the quantity of squalene, a lipid characteristic of sebum. […] (FIG. 14B)

`CO[C@H](Cc1ccc(NC(C)=O)cc1)C(=O)O` [Compound A, N-acetyl-(R)-(−)-3-(4-aminophenyl)-2-methoxypropionic acid] was tested, and the hair shaft elongation [1] was “stimulates hair shaft elongating”, the “human hair follicle pigmentation (melanin staining)” value [2] was “stimulation of human hair follicle pigmentation” and the “proliferation and apoptosis of hair matrix keratinocytes (Ki67/Tunel immunohistomorphometry)” value [3] was “stimulates both proliferation and apoptosis”. The K15 expression (K15; lower hair follicle, lower doses of compound A) was “significant upregulation”, the K15 expression (K15; treated skin) was “no measurable expression” and the K19 cells (K19; 10× higher concentration) was “down regulation”. For the same compound, the K19 cells (K19; lower concentration) was “significant upregulation”, the K19 expression (K19; skin) was “no measurable expression” and the “cellular vitality (MTT)” value [4] was “did not show any effect on cellular vitality”. For the same compound, the “expression of the mRNA of TNF-α induced by H2O2” value (TNF-alpha mRNA; higher dose (0.5 mM), effect similar to troglitazone (Tg)) was “complete inhibition”, the “expression of the mRNA of TNF-α induced by H2O2” value (TNF-alpha mRNA; two higher doses (0.1 mM; 0.5 mM)) was “able to inhibit” and the “dose dependence of inhibition of IL-6 mRNA expression induced by IFN-γ” value (IL-6 mRNA) was “does not appear to be dose-dependent”. The “mRNA expression of IL-6 induced by IFN-γ” value (IL-6 mRNA) was “inhibit the expression of the inflammatory cytokine”, the “protein expression of IL-6 induced by LPS” value (IL-6) was “inhibit, in dose-dependent manner” and the “cell vitality (MTT)” value (sebocytes [5]) was “no effects on cell vitality”. The “sebogenesis (intracellular lipids, Nile Red) induced by LA and LA+TST” value (sebocytes [6]; Example 9, LA (10^-4M), A 1 mM, FIG. 13) was “able to reduce the lipidogenic stimulus”, the “sebogenesis (intracellular lipids, Nile Red) induced by LA and LA+TST” value (sebocytes [6]; Example 11, LA (10^-4M), compound A 1 mM, FIG. 15) was “able to reduce the lipidogenic stimulus” and the “influence of the times of treatment on reduction of the lipidogenic stimulus” value (sebocytes [6]; Example 11, Nile Red assay, FIG. 15) was “No differences were observed”. The “fatty acid assay of lipidogenic stimulus induced by LA and LA+TST” value (sebocytes [7]; FIG. 14A) was “reduced” and the “squalene analysis of lipidogenic stimulus induced by LA and LA+TST” value (sebocytes [7]; FIG. 14B) was “confirmed”.

From patent publication US10959970B2, “Methods of treating hair related conditions” (Nogra Pharma Limited, priority 2009, dated 2021)
